{"source": "ChEMBL document CHEMBL4411307", "about": "“N,N'-diaryl-bishydrazones in a biphenyl platform: Broad spectrum antifungal agents” (Eur J Med Chem, 2019)", "key": {"Candida albicans [1]": {"tested_on": "Candida albicans", "test": "Antifungal activity against fluconazole/ITC-resistant Candida albicans ATCC 10231 measured after 48 hrs by CLSI M27-A3 protocol based method", "type": "functional", "conditions": "ATCC 10231, 48 h"}, "Candida albicans [2]": {"tested_on": "Candida albicans", "test": "Antifungal activity against fluconazole/ITC-susceptible Candida albicans ATCC MYA-2876 measured after 48 hrs by CLSI M27-A3 protocol based method", "type": "functional", "conditions": "ATCC MYA-2876, 48 h"}, "Nakaseomyces glabratus": {"tested_on": "Nakaseomyces glabratus", "test": "Antifungal activity against Candida glabrata ATCC 2001 measured after 48 hrs by CLSI M27-A3 protocol based method", "type": "functional", "conditions": "CBS 138, 48 h"}, "Aspergillus flavus": {"tested_on": "Aspergillus flavus", "test": "Antifungal activity against Aspergillus flavus ATCC MYA-3631 measured after 48 hrs by CLSI M38-A2 protocol based method", "type": "functional", "conditions": "ATCC MYA-3631, 48 h"}, "Candida albicans [3]": {"tested_on": "Candida albicans", "test": "Selectivity ratio of MIC50 for antibiofilm activity against fluconazole/ITC-resistant Candida albicans ATCC 10231 assessed as reduction in sessile growth to MIC for fluconazole/ITC-resistant Candida albicans ATCC 10231", "type": "functional"}, "BEAS-2B": {"tested_on": "BEAS-2B", "test": "Cytotoxicity against human BEAS2B cells after 24 hrs by resazurin based assay", "type": "cell-based"}, "[4]": {"test": "Selectivity index, ratio of CC50 for human A549 cells to MIC for fluconazole/ITC-susceptible Candida albicans ATCC MYA-2310", "type": "toxicity", "conditions": "read-out: Selectivity Index"}, "[5]": {"test": "Selectivity index, ratio of CC50 for human A549 cells to MIC for fluconazole/ITC-resistant Candida albicans ATCC MYA-1003", "type": "toxicity", "conditions": "read-out: Selectivity Index"}, "[6]": {"test": "Selectivity index, ratio of CC50 for human A549 cells to MIC for Aspergillus nidulans ATCC 38163", "type": "toxicity", "conditions": "read-out: Selectivity Index"}, "[7]": {"test": "Selectivity index, ratio of CC50 for human A549 cells to MIC for Aspergillus terreus ATCC MYA-3633", "type": "toxicity", "conditions": "read-out: Selectivity Index"}, "[8]": {"test": "Hemolytic activity in mouse RBC at 1.95 ug/ml after 1 hr relative to control", "type": "ADME, cell-based, Erythrocyte", "conditions": "red blood cells (erythrocytes), read-out: Activity"}, "[9]": {"test": "Hemolytic activity in mouse RBC at 3.9 ug/ml after 1 hr relative to control", "type": "ADME, cell-based, Erythrocyte", "conditions": "red blood cells (erythrocytes), read-out: Activity"}, "[10]": {"test": "Hemolytic activity in mouse RBC at 31.3 ug/ml after 1 hr relative to control", "type": "ADME, cell-based, Erythrocyte", "conditions": "red blood cells (erythrocytes), read-out: Activity"}, "[11]": {"test": "Hemolytic activity in mouse RBC at 62.5 ug/ml after 1 hr relative to control", "type": "ADME, cell-based, Erythrocyte", "conditions": "red blood cells (erythrocytes), read-out: Activity"}, "[12]": {"test": "Selectivity index, ratio of compound concentration showing <20 to <30% hemolysis in mouse RBC to MIC for fluconazole/ITC-resistant Candida albicans ATCC 10231", "type": "toxicity", "conditions": "red blood cells (erythrocytes), read-out: Selectivity Index"}, "[13]": {"test": "Selectivity index, ratio of compound concentration showing <20 to <30% hemolysis in mouse RBC to MIC for fluconazole/ITC-resistant Candida albicans ATCC MYA-1237", "type": "toxicity", "conditions": "mouse red blood cells (RBC), read-out: Selectivity Index"}, "[14]": {"test": "Selectivity index, ratio of compound concentration showing <20 to <30% hemolysis in mouse RBC to MIC for Candida krusei ATCC 6258", "type": "toxicity", "conditions": "mouse red blood cells (RBC), read-out: Selectivity Index"}, "[15]": {"test": "Selectivity index, ratio of compound concentration showing <20 to <30% hemolysis in mouse RBC to MIC for Candida parapsilosis ATCC 22019", "type": "toxicity", "conditions": "mouse red blood cells (RBC), read-out: Selectivity Index"}, "[16]": {"test": "Selectivity index, ratio of compound concentration showing <20 to <30% hemolysis in mouse RBC to MIC for Aspergillus flavus ATCC MYA-3631", "type": "toxicity", "conditions": "mouse red blood cells (RBC), read-out: Selectivity Index"}, "[17]": {"test": "Selectivity index, ratio of compound concentration showing <20 to <30% hemolysis in mouse RBC to MIC for Aspergillus terreus ATCC MYA-3633", "type": "toxicity", "conditions": "mouse red blood cells (RBC), read-out: Selectivity Index"}, "Candida albicans [18]": {"tested_on": "Candida albicans", "test": "Fungicidal activity against fluconazole/ITC-resistant Candida albicans ATCC 10231 assessed as reduction in fungal growth at 0.5 to 2 times MIC incubated for 24 hrs followed by replating on PDA plates measured after 48 hrs Time-Kill assay", "type": "functional, organism-based"}, "Candida albicans [19]": {"tested_on": "Candida albicans", "test": "Fungicidal activity against fluconazole/ITC-resistant Candida albicans ATCC 64124 assessed as reduction in fungal growth at 0.5 to 2 times MIC incubated for 24 hrs followed by replating on PDA plates measured after 48 hrs Time-Kill assay", "type": "functional, organism-based"}}, "note": "Activity calls are given as the source filed them. No cut-off for these calls is given here.", "data": [{"smiles": "C/C(=N\\Nc1ccc(F)cc1)c1ccc(-c2ccc(/C(C)=N/Nc3ccc(F)cc3)cc2)cc1", "values": [{"measurement": "MIC", "setting": "Candida albicans [1]", "value": 1.95, "unit": "µg/mL"}, {"measurement": "MIC", "setting": "Candida albicans [2]", "value": 3.9, "unit": "µg/mL"}, {"measurement": "MIC", "setting": "Nakaseomyces glabratus", "value": 15.6, "unit": "µg/mL"}, {"measurement": "MIC", "setting": "Aspergillus flavus", "value": "> 31.3", "unit": "µg/mL"}, {"measurement": "selectivity ratio", "setting": "Candida albicans [3]", "value": 4}, {"measurement": "CC50", "setting": "BEAS-2B", "value": 10.7, "unit": "µg/mL"}, {"measurement": "selectivity ratio", "setting": "[4]", "value": 8.5}, {"measurement": "selectivity ratio", "setting": "[5]", "value": 2.1}, {"measurement": "selectivity ratio", "setting": "[6]", "value": 2.1}, {"measurement": "selectivity ratio", "setting": "[7]", "value": 0.5}, {"measurement": "hemolysis at 1 h, 1.95 ug/ml", "setting": "[8]", "value": 2.6, "unit": "%"}, {"measurement": "hemolysis at 1 h, 3.9 ug/ml", "setting": "[9]", "value": 2.6, "unit": "%"}, {"measurement": "hemolysis at 1 h, 31.3 ug/ml", "setting": "[10]", "value": 9.5, "unit": "%"}, {"measurement": "hemolysis at 1 h, 62.5 ug/ml", "setting": "[11]", "value": 26.2, "unit": "%"}, {"measurement": "selectivity ratio", "setting": "[12]", "value": "1 to 32"}, {"measurement": "selectivity ratio", "setting": "[13]", "value": "1 to 32"}, {"measurement": "selectivity ratio", "setting": "[14]", "value": "1 to 32"}, {"measurement": "selectivity ratio", "setting": "[15]", "value": "1 to 32"}, {"measurement": "selectivity ratio", "setting": "[16]", "value": "1 to 32"}, {"measurement": "selectivity ratio", "setting": "[17]", "value": "1 to 32"}, {"measurement": "Activity", "setting": "Candida albicans [18]", "value": "Active"}, {"measurement": "Activity", "setting": "Candida albicans [19]", "value": "Active"}]}]}
